The values below come from patent US20060270670A1, “Methods of synthesizing 6-alkylaminoquinoline derivatives” (priority 2005, published 2006).

Like-named read-outs stand apart in the source and are kept apart here.

In one series the test system is 3T3. Nature of the series: Cell proliferation assay (SRB), 3T3. Type of series: cell-based. As to conditions: Mus musculus, NIH3T3, 48 h, read-out: IC50 cell proliferation 3T3.
The next series concerns 3T3/neu. In words: Cell proliferation assay (SRB), 3T3/neu. Type of series: cell-based, mouse. As to conditions: for IC50: Mus musculus, 48 h, read-out: IC50 cell proliferation 3T3/neu.
The subject of the next series is SK-Br-3. Nature of the series: Cell proliferation assay (SRB), SK-Br-3. Type of series: cell-based. The note with it: Homo sapiens, read-out: IC50 cell proliferation SK-Br-3.
Another series deals with BT474. Nature of the series: Cell proliferation assay (SRB), BT474. As to conditions: Homo sapiens, BT-474, 144 h, read-out: IC50 cell proliferation BT474. Type of series: cell-based.
The subject of series [1] is SW620 colon carcinoma cells. Nature of the series: Cell proliferation assay (SRB), SW620. Type of series: cell-based. The note with it: Homo sapiens, SW-620, 48 h, read-out: IC50 cell proliferation SW620.
In another series the test system is 3T3/neu xenografts. In words: Effect on tumor xenografts, 3T3/neu. Type of series: in vivo, Mice.
A further series has as its system BT474 xenografts. In words: Effect on tumor xenografts, BT474. The format is in vivo, Mice. The note with it: for maximum tumor inhibition: day 21; for effect on BT474 xenografts: 10-40 mg/kg/day. The procedure: In animals bearing BT474 xenografts, treatment of animals with (E)N-{4-[3-chloro-4-(2-pyridinylmethoxy)anilino]-3-cyano-7-ethoxy-6-quinolinyl}-4-(methylamino)-2-butenamide had no effect at 10-40 mg/kg/day, as shown in Table 4.

In series [2] the target is T1, cytoplasmic kinase domain of HER-2 (Homo sapiens, UniProt P04626).
T1 construct: Purified recombinant C-terminal fragment of HER-2 was incubated with ATP
Nature of the series: HER-2 autophosphorylation assay. Type of series: biochemical. The note with it: purified recombinant C-terminal fragment of HER-2 with ATP; phosphotyrosine antibodies; mean and SE (n).

The target in a further series is T2, EGFR (Homo sapiens, UniProt P00533).
T2 construct: purchased ProQinase, Freiburg, Germany
In words: ErbB substrate phosphorylation assay (33PanQinase assay), EGFR. As to conditions: peptide substrate phosphorylation, [γ33P]-ATP. Type of series: biochemical. The procedure:
(§1) Here, the ability of the compound to inhibit phosphorylation of a substrate peptide [poly(Glu-Tyr) or poly(Ala-Glu-Lys-Tyr)] was determined.

Another series addresses T3, HER-2 (Homo sapiens, UniProt P04626).
T3 construct: purchased ProQinase, Freiburg, Germany
In words: ErbB substrate phosphorylation assay (33PanQinase assay), HER-2. The format is biochemical. As to conditions: peptide substrate phosphorylation, [γ33P]-ATP. The method, then:
as §1

A further series deals with T4, HER-4 (Homo sapiens, UniProt Q15303).
T4 construct: purchased ProQinase, Freiburg, Germany
Nature of the series: ErbB substrate phosphorylation assay (33PanQinase assay), HER-4. The format is biochemical. As to conditions: peptide substrate phosphorylation, [γ33P]-ATP. The method, then:
as §1

A further series has as its system A431. In words: Cell proliferation assay (SRB), A431. Type of series: cell-based. As to conditions: Homo sapiens, A-431, 48 h, A431, 2 days, mean and SE (n).

T1 sequence (P04626 676-1255 limits assumed): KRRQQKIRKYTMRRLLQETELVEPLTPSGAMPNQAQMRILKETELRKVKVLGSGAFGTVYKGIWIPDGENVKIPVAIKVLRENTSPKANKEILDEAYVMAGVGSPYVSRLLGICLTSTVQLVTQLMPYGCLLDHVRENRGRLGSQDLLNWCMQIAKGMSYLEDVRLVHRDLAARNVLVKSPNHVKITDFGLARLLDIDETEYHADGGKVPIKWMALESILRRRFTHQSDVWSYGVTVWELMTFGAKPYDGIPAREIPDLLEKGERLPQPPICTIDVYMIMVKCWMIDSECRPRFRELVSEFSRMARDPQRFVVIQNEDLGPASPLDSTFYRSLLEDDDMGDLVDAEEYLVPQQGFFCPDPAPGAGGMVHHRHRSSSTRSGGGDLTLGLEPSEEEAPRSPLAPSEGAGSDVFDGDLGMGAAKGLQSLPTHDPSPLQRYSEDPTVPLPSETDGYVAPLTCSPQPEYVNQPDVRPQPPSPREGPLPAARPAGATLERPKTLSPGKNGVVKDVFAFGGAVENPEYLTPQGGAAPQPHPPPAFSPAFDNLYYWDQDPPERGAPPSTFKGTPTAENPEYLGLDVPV
T2 sequence (P00533 25-1210): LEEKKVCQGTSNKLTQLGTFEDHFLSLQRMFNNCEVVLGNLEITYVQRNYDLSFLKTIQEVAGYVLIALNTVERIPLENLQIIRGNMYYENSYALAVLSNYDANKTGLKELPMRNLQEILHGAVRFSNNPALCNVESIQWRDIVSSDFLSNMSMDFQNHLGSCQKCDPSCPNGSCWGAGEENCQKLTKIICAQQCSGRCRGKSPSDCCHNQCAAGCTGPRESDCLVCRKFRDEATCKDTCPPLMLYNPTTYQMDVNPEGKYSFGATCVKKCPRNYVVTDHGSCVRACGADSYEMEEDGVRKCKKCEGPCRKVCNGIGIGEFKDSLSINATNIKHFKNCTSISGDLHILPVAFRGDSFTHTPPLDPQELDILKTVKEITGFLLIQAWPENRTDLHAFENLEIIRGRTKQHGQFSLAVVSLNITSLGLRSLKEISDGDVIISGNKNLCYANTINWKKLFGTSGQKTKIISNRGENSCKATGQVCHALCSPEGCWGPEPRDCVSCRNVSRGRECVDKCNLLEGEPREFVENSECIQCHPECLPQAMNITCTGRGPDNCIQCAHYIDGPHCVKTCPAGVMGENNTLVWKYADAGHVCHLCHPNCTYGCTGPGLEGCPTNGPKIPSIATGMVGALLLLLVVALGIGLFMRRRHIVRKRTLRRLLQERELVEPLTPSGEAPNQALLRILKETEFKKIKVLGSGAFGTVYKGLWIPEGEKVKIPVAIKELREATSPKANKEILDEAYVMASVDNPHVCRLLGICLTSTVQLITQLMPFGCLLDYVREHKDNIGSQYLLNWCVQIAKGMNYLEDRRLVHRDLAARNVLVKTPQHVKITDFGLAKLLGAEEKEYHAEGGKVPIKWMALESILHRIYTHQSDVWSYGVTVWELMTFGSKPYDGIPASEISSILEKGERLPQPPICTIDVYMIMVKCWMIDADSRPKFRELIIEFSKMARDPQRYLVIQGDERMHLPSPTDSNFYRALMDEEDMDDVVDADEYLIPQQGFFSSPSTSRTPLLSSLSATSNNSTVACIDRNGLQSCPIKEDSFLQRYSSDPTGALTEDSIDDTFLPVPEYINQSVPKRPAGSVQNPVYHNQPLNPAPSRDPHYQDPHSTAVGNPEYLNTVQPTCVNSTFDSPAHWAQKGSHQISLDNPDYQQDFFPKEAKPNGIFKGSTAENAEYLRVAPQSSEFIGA
T4 sequence (Q15303 26-1308): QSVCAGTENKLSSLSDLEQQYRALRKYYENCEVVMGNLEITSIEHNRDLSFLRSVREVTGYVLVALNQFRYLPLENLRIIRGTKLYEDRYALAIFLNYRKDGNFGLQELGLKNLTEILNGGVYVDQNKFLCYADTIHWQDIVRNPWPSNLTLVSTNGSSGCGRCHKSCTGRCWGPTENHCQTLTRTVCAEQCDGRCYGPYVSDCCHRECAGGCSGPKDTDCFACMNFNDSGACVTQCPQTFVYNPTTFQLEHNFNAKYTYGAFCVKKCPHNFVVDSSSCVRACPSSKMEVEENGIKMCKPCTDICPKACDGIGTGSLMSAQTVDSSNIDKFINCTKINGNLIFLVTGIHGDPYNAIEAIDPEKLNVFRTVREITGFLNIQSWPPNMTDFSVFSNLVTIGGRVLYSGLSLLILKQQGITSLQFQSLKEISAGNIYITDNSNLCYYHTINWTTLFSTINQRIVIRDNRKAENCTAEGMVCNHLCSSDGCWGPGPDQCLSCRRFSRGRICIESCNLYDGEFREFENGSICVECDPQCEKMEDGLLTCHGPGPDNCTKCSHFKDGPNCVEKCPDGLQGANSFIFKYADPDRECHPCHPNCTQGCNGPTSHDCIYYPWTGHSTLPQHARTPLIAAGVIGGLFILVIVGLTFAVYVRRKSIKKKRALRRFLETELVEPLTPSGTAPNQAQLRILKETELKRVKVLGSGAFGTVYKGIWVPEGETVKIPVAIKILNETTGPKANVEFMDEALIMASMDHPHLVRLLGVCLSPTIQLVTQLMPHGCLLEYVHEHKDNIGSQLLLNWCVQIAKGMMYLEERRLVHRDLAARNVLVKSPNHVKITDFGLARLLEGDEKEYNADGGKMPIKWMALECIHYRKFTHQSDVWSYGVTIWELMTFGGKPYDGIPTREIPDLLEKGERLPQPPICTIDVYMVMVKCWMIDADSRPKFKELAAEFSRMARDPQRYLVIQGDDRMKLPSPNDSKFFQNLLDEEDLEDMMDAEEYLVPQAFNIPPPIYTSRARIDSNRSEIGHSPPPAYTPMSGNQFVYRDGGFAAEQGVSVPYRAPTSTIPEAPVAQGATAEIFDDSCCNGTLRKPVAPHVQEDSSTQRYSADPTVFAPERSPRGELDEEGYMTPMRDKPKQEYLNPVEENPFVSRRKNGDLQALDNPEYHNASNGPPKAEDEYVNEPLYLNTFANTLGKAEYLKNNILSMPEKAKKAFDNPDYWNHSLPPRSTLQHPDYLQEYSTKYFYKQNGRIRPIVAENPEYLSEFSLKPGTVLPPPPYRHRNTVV
T3 sequence (P04626 23-1255): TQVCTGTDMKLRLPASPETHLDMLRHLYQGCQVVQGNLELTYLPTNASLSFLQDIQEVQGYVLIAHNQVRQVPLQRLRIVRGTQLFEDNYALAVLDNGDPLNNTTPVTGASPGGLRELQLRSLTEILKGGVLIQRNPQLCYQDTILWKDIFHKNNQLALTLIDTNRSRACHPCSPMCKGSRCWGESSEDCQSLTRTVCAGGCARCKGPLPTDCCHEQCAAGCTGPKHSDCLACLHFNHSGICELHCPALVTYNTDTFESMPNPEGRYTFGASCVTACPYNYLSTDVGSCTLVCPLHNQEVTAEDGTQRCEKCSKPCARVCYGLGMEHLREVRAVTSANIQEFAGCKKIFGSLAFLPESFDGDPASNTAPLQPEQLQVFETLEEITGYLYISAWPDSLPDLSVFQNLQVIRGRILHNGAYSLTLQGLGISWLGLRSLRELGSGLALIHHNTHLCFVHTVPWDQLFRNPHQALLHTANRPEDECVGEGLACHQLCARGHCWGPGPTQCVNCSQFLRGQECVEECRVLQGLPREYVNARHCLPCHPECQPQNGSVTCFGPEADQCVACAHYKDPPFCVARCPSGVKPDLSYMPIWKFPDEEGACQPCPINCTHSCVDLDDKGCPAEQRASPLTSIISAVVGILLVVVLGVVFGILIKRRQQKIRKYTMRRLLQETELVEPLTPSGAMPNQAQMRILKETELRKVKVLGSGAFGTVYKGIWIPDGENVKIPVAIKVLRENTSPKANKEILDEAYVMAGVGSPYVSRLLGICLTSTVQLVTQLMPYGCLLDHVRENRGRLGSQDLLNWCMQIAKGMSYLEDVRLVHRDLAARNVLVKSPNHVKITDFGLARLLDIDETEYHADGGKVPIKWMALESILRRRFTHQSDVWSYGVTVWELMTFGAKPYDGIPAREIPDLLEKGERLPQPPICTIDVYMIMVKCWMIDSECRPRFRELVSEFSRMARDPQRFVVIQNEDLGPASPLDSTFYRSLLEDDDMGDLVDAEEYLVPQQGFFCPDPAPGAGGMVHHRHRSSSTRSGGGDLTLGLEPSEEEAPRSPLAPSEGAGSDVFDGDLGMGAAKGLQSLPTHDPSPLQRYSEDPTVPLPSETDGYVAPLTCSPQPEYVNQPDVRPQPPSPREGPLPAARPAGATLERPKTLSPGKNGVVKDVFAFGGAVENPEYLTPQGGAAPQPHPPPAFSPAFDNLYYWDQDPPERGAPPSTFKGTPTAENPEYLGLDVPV

Molecule `CCOc1cc2ncc(C#N)c(Nc3ccc(F)c(Cl)c3)c2cc1NC(=O)/C=C/CNCC(=O)OC(C)(C)C` [Example 2, (E)N-{4-[3-chloro-4-fluoroanilino]-3-cyano-7-ethoxy-6-quinolinyl}-4-[N-(t-butyloxycarbonyl)methylamino]-2-butenamide] showed a melting point of 106.5 to 108 °C.

Turning to `CCOc1cc2ncc(C#N)c(Nc3ccc(OCc4ccccn4)c(Cl)c3)c2cc1NC(=O)/C=C/CN(C)C` [Dimethylamino, (E)N-{4-[3-Chloro-4-(2-pyridinylmethoxy)anilino]-3-cyano-7-ethoxy-6-quinolinyl}-4-(dimethylamino)-2-butenamide, reference compound], the IC50 with 3T3 was determined as 2190 ± 700 nM; with 3T3/neu, 5 ± 0.2 nM; with SK-Br-3 (SK-BR-3, 48 h), 36 ± 20 nM; in the series with BT474 it was 2 ± 0.2 nM; in series [1] it was 1220 ± 246 nM. Further, the tumor growth inhibition was 74% in the series on 3T3/neu xenografts (first test, 40 mg/kg/day, day 18 (data not shown)); 93-100% with 3T3/neu xenografts (second independent test, between 40 and 80 mg/kg/day, day 14). Also, the maximum tumor inhibition in the series on BT474 xenografts (10 mg/kg/day) turned out to be 64%; in the series on BT474 xenografts (40 mg/kg/day) it was 97%. Moreover, in the series on BT474 xenografts, the “effect on BT474 xenografts” value is reported as “good antitumor activity”.

In the case of `CCOc1cc2ncc(C#N)c(Nc3ccc(OCc4ccccn4)c(Cl)c3)c2cc1NC(=O)/C=C/CNC` [Example 6, (E)N-{4-[3-Chloro-4-(2-pyridinylmethoxy)anilino]-3-cyano-7-ethoxy-6-quinolinyl}-4-(methylamino)-2-butenamide], the IC50 amounted to 3.4 nM in series [2]; 7 nM on EGFR; 21 nM against HER-2; 13 nM at HER-4; 5460 nM in the series on 3T3 (3T3 untransfected cells, 2 days, SRB, mean and SE (n)); 40 nM in the series with 3T3/neu (3T3/neu, 2 days, SRB, mean and SE (n)). The IC50 stood at 67 nM with A431; 34 nM in the series on SK-Br-3 (48 h, SK-Br-3, 2 days, SRB, mean and SE (n)); 3 nM in the series on BT474 (BT474, 6 days, SRB, mean and SE (n)); 1600 nM in series [1] (SW620, 2 days, SRB, mean and SE (n)). Further, in the series on 3T3/neu (3T3/neu cells), the “fold less potent than the dimethylamino compound” value is recorded as 8 fold. Moreover, the “effect on tumor growth” value with 3T3/neu xenografts (first test, daily oral, between 5 and 40 mg/kg/day) is on record as “no effect on tumor growth”; in the series with 3T3/neu xenografts (second independent test, 100 mg/kg/day), “no effect on tumor growth”. Besides, the “effect on BT474 xenografts” value with BT474 xenografts is on record as “no effect”.
